Laboratory results: patent publication US9089572B2, “Inhibitors of p97” (California Institute of Technology, priority 2008, dated 2015)

Columns and labels:
[1] = system: HEK293 cells that stably expressed TCR-GFP; test: Accumulation of ERAD reporter TCR-alpha-GFP; format: cell-based; settings: 2 h at 37° C., fluorescence microscopy
Method: Since p97 has a well-established role in ERAD, it was also determined whether compound 2 affects the accumulation of an ERAD-reporter, TCR-alpha-GFP. HEK293 cells that stably expressed TCR-GFP were treated with MG132 (see FIG. 19), compound 1 or compound 2 (FIG. 20) at the indicated concentrations for 2 h at 37° C. prior to being imaged by fluorescence microscopy to determine TCR-GFP accumulation. […] It was thus concluded that compound 2 inhibits p97 in cells, resulting in the accumulation of both soluble and insoluble high molecular weight ubiquitin conjugates and UPS substrates whose degradation depends upon p97.
HEK293 cells that stably expressed TCR-GFP were treated with the Velcade (FIG. 30) or compound 8 (FIG. 31) at the indicated concentrations for 2 h at 37° C. prior to being imaged by fluorescence microscopy to quantify TCR-GFP accumulation.

CCRF-CEM = test: MTT cell growth assay, CCRF-CEM; format: cell-based; settings: Homo sapiens, 48 or 72 h, read-out: Cell line inhibition of growth GI50 CCRF-CEM
Method: To probe further the effect of compound 2 and related compounds 1, 3, 5, 6 and 7, various concentrations of these compounds were added to 13 different cell lines and incubated for 48 or 72 h. An MTT assay was then performed to evaluate cell growth and survival.

Yeast Cdc48 = Yeast Cdc48 (Saccharomyces cerevisiae, UniProt P25694); test: In vitro ATP hydrolysis, yeast Cdc48; format: biochemical
Method: Compounds were tested for their ability to inhibit the ATPase activity of purified wild type murine p97 and T532C-Cdc48, a mutant of yeast Cdc48 in which the residue analogous to cysteine 522, threonine 532, was converted to cysteine.
(§1) To determine whether cysteine 522 is necessary for inhibition of p97 by compound 2, a mutant of p97 was constructed in which cysteine 522 was converted to either alanine (C522A-mp97) or threonine (C522T-mp97). The IC50 values of compound 2 were measured the against various enzymes during a 20-minute preincubation (see Table 2). Mutation of cysteine 522 in p97 to either alanine or threonine decreased sensitivity to compound 2 by greater than 100-fold. On the other hand, yeast Cdc48, which normally is quite resistant to compound 2, became nearly 30-fold more sensitive to the compound upon introduction of a cysteine in place of threonine 532.

Human 26S proteasome = test: Hydrolysis of fluorogenic proteasome substrate LLVY-AMC by purified 26S proteasome; format: biochemical; settings: 19 nM 26S proteasome, 30 min preincubation, 60 μM LLVY-AMC
Method: Purified human 26S proteasome (19 nM) was incubated with either DMSO, MG132 or compound 2 for 30 min at room temperature and fluorogenic proteasome substrate LLVY-AMC (60 μM) was added to initiate the reaction. Fluorescence intensity was monitored every 3 min over 30 min.

Human 19S ATPase = test: In vitro ATP hydrolysis, 19S ATPase of the 26S proteasome; format: biochemical; settings: 20-minute preincubation
Method: as §1
To further address the specificity of inhibition by compound 2, its activity against two other AAA ATPases, NSF and the 26S proteasome, was assayed. Although NSF is known to be sensitive to thiol-reactive agents, it was more than 100-fold less sensitive to compound 2 than p97 (Table 2). […] The results with NSF and the 26S proteasome are noteworthy because both the active D1 domain of NSF and the Rpt3 subunit of the 26S proteasome have a cysteine in the position analogous to cysteine 522 of p97 (FIG. 3).

Human 19S ATPase, sequence (P17980 whole entry): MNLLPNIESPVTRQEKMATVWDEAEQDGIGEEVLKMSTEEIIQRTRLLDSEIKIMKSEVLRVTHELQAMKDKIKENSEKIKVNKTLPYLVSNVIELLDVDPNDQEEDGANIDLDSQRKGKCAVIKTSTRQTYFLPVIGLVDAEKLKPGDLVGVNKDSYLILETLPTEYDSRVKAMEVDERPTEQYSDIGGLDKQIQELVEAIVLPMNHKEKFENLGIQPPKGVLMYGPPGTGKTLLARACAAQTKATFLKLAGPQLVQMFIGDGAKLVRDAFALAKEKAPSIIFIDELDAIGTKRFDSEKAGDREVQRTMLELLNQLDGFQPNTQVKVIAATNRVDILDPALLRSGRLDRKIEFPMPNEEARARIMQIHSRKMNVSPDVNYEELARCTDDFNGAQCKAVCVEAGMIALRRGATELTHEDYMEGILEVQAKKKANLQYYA
Human 19S ATPase, sequence (P62333 whole entry, further chain): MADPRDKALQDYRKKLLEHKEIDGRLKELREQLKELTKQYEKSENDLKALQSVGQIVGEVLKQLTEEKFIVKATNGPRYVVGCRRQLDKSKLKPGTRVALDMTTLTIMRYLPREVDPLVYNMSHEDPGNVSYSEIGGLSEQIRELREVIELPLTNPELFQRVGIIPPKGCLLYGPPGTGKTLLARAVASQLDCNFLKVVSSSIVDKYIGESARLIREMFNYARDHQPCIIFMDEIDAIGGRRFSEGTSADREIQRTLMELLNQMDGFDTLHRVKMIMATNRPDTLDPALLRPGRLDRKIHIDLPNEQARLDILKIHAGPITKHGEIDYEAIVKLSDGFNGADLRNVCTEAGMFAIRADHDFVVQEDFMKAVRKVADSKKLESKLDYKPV
Human 19S ATPase, sequence (P62195 2-406, further chain): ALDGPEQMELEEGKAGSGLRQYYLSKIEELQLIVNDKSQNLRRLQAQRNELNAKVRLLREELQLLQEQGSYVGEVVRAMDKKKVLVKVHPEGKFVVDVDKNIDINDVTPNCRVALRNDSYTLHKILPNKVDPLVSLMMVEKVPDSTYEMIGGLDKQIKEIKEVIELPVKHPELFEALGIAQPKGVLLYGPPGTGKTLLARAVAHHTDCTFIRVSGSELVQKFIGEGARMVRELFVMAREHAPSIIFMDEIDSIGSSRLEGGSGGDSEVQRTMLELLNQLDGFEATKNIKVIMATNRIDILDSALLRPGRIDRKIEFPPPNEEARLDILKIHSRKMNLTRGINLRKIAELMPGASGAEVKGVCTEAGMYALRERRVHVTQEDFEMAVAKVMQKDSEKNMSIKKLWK
Human 19S ATPase, sequence (P35998 2-433, further chain): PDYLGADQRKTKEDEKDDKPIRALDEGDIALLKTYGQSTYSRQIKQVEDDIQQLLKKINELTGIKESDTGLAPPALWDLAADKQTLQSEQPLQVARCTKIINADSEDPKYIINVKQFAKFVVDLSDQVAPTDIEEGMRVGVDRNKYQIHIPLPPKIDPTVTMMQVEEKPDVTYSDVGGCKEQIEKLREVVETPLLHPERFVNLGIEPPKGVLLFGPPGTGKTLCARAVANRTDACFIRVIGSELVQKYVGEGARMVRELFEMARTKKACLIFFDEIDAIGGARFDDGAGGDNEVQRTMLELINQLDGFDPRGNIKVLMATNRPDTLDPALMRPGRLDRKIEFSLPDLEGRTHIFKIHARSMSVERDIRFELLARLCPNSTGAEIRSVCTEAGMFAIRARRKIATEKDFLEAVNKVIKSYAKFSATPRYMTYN
Human 19S ATPase, sequence (P62191 2-440, further chain): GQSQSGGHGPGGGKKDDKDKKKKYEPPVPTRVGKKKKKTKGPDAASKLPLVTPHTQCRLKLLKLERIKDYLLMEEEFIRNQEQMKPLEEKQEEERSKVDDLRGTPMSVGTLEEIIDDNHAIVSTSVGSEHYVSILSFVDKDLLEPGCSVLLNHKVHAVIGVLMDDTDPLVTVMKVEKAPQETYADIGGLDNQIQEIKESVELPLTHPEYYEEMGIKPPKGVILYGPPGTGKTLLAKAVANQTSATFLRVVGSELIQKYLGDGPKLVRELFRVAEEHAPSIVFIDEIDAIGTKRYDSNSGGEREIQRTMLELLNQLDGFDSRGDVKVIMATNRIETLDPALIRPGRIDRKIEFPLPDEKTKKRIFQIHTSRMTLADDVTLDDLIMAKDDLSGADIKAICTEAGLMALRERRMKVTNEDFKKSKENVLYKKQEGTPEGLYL
Human 19S ATPase, sequence (P43686 whole entry, further chain): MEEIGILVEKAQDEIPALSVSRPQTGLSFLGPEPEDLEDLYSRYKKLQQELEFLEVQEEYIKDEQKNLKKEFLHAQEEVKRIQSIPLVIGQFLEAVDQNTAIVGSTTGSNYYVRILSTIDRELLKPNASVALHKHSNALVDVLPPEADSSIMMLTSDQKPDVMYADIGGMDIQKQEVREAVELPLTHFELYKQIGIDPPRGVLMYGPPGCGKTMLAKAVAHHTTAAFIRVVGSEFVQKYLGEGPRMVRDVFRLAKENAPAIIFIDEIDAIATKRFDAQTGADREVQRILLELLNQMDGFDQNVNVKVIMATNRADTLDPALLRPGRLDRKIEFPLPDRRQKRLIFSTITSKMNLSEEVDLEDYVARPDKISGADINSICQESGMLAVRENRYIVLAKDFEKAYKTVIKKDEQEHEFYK
Yeast Cdc48, sequence (P25694 whole entry): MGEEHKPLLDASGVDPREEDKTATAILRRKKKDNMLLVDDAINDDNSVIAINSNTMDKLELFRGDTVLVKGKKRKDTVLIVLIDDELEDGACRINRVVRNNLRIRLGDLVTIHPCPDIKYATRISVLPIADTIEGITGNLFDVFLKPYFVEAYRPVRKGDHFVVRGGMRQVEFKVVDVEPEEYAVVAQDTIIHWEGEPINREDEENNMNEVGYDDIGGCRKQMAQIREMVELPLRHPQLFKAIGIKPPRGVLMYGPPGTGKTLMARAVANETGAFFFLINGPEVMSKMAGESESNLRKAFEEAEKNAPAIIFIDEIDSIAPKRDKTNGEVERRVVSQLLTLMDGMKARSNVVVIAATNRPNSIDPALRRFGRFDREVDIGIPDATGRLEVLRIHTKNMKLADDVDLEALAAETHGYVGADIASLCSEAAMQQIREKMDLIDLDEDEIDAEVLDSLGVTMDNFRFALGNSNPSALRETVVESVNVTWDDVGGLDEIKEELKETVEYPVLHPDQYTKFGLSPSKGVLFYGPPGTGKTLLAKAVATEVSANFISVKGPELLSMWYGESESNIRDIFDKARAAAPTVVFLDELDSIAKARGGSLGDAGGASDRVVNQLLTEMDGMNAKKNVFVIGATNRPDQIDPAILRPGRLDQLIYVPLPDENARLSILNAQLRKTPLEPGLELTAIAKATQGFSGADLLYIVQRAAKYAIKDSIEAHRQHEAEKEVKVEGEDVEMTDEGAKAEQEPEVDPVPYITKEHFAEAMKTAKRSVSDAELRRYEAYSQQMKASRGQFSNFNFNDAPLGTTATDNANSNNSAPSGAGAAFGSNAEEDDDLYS

C=CC(=O)Nc1ncnc2c1c(-c1ccccc1)nn2C(C)(C)C [Compound 2]
accumulation of TCR-alpha-GFP [1]: substantial TCR-alpha-GFP accumulation | GI50 (CCRF-CEM): 1.6 ± 0.8 µM | IC50 (Yeast Cdc48): 376 ± 95 µM | inhibition of hydrolysis of proteasome substrate LLVY-AMC (Human 26S proteasome): does not inhibit hydrolysis | IC50 (Human 19S ATPase): 75 µM
